Results: patent US11154529B2, “Phosphaplatin liquid formulations” (Phosplatin Therapeutics Inc., priority 2016, dated 2021)

Assay: Ready-to-use formulation stability at 2-8° C., 5 mg/mL (R,R)-pyrodach-2 in 10 mM Potassium Phosphate Buffer at pH 7.2, 10 mL vials
Assay type: physicochemical
Protocol: A scalable and commercially viable process for the manufacture of a ready-to-use formulation of (R,R)-pyrodach-2 in 10 mM buffer adjusted to a pH of 7.0-7.5 comprises the steps of: a) preparing a 10 mM aqueous solution of buffer; b) adding sufficient hydroxide base to effect neutralization of the added (R,R)-pyrodach-2 to reach a pH of about 7; c) adding (R,R)-pyrodach-2 and allowing it to dissolve; d) if necessary adding additional hydroxide to adjust the pH into a range of about 7.0-7.5; and e) filtering the solution under sterile conditions, filling the solution into glass vials, and covering it with a stopper and/or a cap. Stability data on two large batches of 5 mg/mL (R,R)-pyrodach-2 in 10 mM potassium phosphate buffer were generated. One such batch at pH=7.2 was evaluated at both 25° C./60% RH and refrigerated (2-8° C.) conditions, with data summarized in Table 4 and Table 5, respectively. […] Similar observations have been made for the ready-to-use liquid formulation at pH7.4, as illustrated in Table 6 and Table 7.
• Transfer 4564.6 mg±0.5 mg of potassium phosphate dibasic, trihydrate to a 2-L volumetric flask. • Fill flask to approximately 75% volume with water, swirl as needed to dissolve all solids. • Volumetrically transfer 32.0 mL of 1N KOH to flask. • Dilute flask to volume with water and mix well. • Record pH of final solution. This is the diluent. • Transfer 7653.1 mg±0.5 mg of (R,R)-pyrodach-2 to a compounding vessel. • Transfer 1500 mL of the diluent to the vessel and stir to dissolve solids. • Record pH of final solution. • Pass entire solution through a 0.22 μm sterile filter membrane into a sterile collection vessel. • Calculate (R,R)-pyrodach-2 solution concentration
To a […] glass beaker equipped with mechanical mixer was add 24645.5 g of sterile water for injection. With agitation 47.03 gm of dibasic potassium phosphate USP was added and the solids allowed to dissolve. To the stirred solution was added 253.8 gm of 1.00 N potassium hydroxide. Sterile water for injection USP (900.0 gm) was used as a rinse to facilitate both additions. With vigorous agitation, (R,R)-pyrodach-2 (201.87 gm) was slowly added and agitation continued until all of the solids dissolved. Sterile water for injection USP (900.0 gm) was used as a rinse to facilitate the addition. The pH was determined to be 6.7. A total of 85 mL of 1.00 N potassium hydroxide was added in 5.0 mL aliquots to adjust the pH to 7.3. The solution was sterile filtered through 0.22μ Millipore Millipack filter and aseptically filled, 10 ml top a vial in 10 mL in 10 cc Wheaton clear molded vails, stoppered with a 20 mm stopper and crimp seal capped.

O=P1(O)OP(=O)(O)[O][Pt]2([NH][C@@H]3CCCC[C@H]3[NH]2)[O]1 (stereo partly drawn) [(R,R)-pyrodach-2, (R,R)-trans-1,2-cyclohexanediamine-(dihydrogenpyrophosphato)platinum(II)]
(DACH) Pt-diaquo (~RRT 0.3) (1 Month): 0.17%
(DACH) Pt-monoaquo (~RRT 0.7) (1 Month): 0.84%
Assay (Potency) (1 Month): 97.7%
PT-112 Dimer (~RRT 4.0) (1 Month): 0.21%
RRT 0.56 (1 Month): 0.11%
Total Related Substances (1 Month): 1%
pH (1 Month): 7.2
(DACH) Pt-diaquo (~RRT 0.3) (2 Month): 0.09%
(DACH) Pt-monoaquo (~RRT 0.7) (2 Month): 0.91%
Assay (Potency) (2 Month): 100.1%
PT-112 Dimer (~RRT 4.0) (2 Month): 0.25%
RRT 0.56 (2 Month): 0.10%
RRT 0.68 (2 Month): 0.06%
Total Related Substances (2 Month): 1%
pH (2 Month): 7.2
(DACH) Pt-diaquo (~RRT 0.3) (3 Month): 0.18%
(DACH) Pt-monoaquo (~RRT 0.7) (3 Month): 0.82%
Assay (Potency) (3 Month): 98.2%
PT-112 Dimer (~RRT 4.0) (3 Month): 0.31%
RRT 0.56 (3 Month): 0.12%
RRT 0.68 (3 Month): 0.05%
RRT 3.1-3.2 (3 Month): 0.08%
Total Related Substances (3 Month): 2%
pH (3 Month): 7.2
(DACH) Pt-diaquo (~RRT 0.3) (4 Month): 0.13%
(DACH) Pt-monoaquo (~RRT 0.7) (4 Month): 0.88%
Assay (Potency) (4 Month): 98.6%
PT-112 Dimer (~RRT 4.0) (4 Month): 0.27%
RRT 0.50 (4 Month): 0.05%
RRT 0.56 (4 Month): 0.13%
RRT 3.1-3.2 (4 Month): 0.07%
Total Related Substances (4 Month): 2%
pH (4 Month): 7.3
(DACH) Pt-diaquo (~RRT 0.3) (6 Month): 0.18%
(DACH) Pt-monoaquo (~RRT 0.7) (6 Month): 0.91%
Assay (Potency) (6 Month): 98.4%
PT-112 Dimer (~RRT 4.0) (6 Month): 0.28%
RRT 0.56 (6 Month): 0.12%
RRT 0.68 (6 Month): 0.05%
RRT 3.1-3.2 (6 Month): 0.10%
Total Related Substances (6 Month): 2%
pH (6 Month): 7.3
Particulate Matter (Light Obscuration) (6 Month, first value): 150 particles per container
Particulate Matter (Light Obscuration) (6 Month, second value): 8 particles particles per container
(DACH) Pt-diaquo (~RRT 0.3) (9 Month): 0.14%
(DACH) Pt-monoaquo (~RRT 0.7) (9 Month): 1.05%
Assay (Potency) (9 Month): 97.8%
PT-112 Dimer (~RRT 4.0) (9 Month): 0.29%
RRT 0.56 (9 Month): 0.16%
RRT 0.68 (9 Month): 0.06%
RRT 3.1-3.2 (9 Month): 0.10%
Total Related Substances (9 Month): 2%
pH (9 Month): 7.2
(DACH) Pt-diaquo (~RRT 0.3) (12 Month): 0.20%
(DACH) Pt-monoaquo (~RRT 0.7) (12 Month): 1.02%
Assay (Potency) (12 Month): 97.8%
PT-112 Dimer (~RRT 4.0) (12 Month): 0.29%
RRT 0.50 (12 Month): 0.06%
RRT 0.56 (12 Month): 0.16%
RRT 0.68 (12 Month): 0.10%
RRT 3.1-3.2 (12 Month): 0.16%
Total Related Substances (12 Month): 2%
pH (12 Month): 7.2
Particulate Matter (Light Obscuration) (12 Month, first value): 236 particles per container
Particulate Matter (Light Obscuration) (12 Month, second value): 4 particles particles per container
(DACH) Pt-diaquo (~RRT 0.3) (15 Month): 0.15%
(DACH) Pt-monoaquo (~RRT 0.7) (15 Month): 0.92%
Assay (Potency) (15 Month): 98.7%
PT-112 Dimer (~RRT 4.0) (15 Month): 0.29%
RRT 0.50 (15 Month): 0.07%
RRT 0.56 (15 Month): 0.19%
RRT 0.68 (15 Month): 0.06%
RRT 3.1-3.2 (15 Month): 0.22%
Total Related Substances (15 Month): 2%
pH (15 Month): 7.2
(DACH) Pt-diaquo (~RRT 0.3) (18 Month): 0.15%
(DACH) Pt-monoaquo (~RRT 0.7) (18 Month): 0.93%
Assay (Potency) (18 Month): 100.3%
PT-112 Dimer (~RRT 4.0) (18 Month): 0.31%
RRT 0.50 (18 Month): 0.07%
RRT 0.56 (18 Month): 0.19%
RRT 0.68 (18 Month): 0.07%
RRT 3.1-3.2 (18 Month): 0.19%
RRT 3.54 (18 Month): 0.05%
Total Related Substances (18 Month): 2%
pH (18 Month): 7.3
(DACH) Pt-diaquo (~RRT 0.3) (24 Month): 0.17%
(DACH) Pt-monoaquo (~RRT 0.7) (24 Month): 0.82%
Assay (Potency) (24 Month): 97.1%
PT-112 Dimer (~RRT 4.0) (24 Month): 0.31%
RRT 0.46 (24 Month): 0.06%
RRT 0.50 (24 Month): 0.22%
RRT 0.56 (24 Month): 0.09%
RRT 0.68 (24 Month): 0.05%
RRT 3.1-3.2 (24 Month): 0.22%
RRT 3.54 (24 Month): 0.11%
Total Related Substances (24 Month): 2%
pH (24 Month): 7.2
Particulate Matter (Light Obscuration) (24 Month, first value): 41 particles per container
Particulate Matter (Light Obscuration) (24 Month, second value): 12 particles per container
(DACH) Pt-diaquo (~RRT 0.3) (30 Month): 0.14%
(DACH) Pt-monoaquo (~RRT 0.7) (30 Month): 0.96%
Assay (Potency) (30 Month): 98.2%
PT-112 Dimer (~RRT 4.0) (30 Month): 0.33%
RRT 0.50 (30 Month): 0.17%
RRT 0.56 (30 Month): 0.19%
RRT 0.68 (30 Month): 0.08%
RRT 3.1-3.2 (30 Month): 0.31%
RRT 3.54 (30 Month): 0.10%
Total Related Substances (30 Month): 2%
pH (30 Month): 7.2
Particulate Matter (Light Obscuration) (30 Month, first value): 62 particles per container
Particulate Matter (Light Obscuration) (30 Month, second value): 6 particles particles per container
(DACH) Pt-diaquo (~RRT 0.3) (36 Month): 0.12%
(DACH) Pt-monoaquo (~RRT 0.7) (36 Month): 1.16%
Assay (Potency) (36 Month): 97.8%
PT-112 Dimer (~RRT 4.0) (36 Month): 0.36%
RRT 0.46 (36 Month): 0.07%
RRT 0.50 (36 Month): 0.23%
RRT 0.56 (36 Month): 0.11%
RRT 0.68 (36 Month): 0.09%
RRT 3.1-3.2 (36 Month): 0.30%
RRT 3.54 (36 Month): 0.14%
Total Related Substances (36 Month): 3%
pH (36 Month): 7.2
(DACH) Pt-diaquo (~RRT 0.3) (Initial): 0.16%
(DACH) Pt-monoaquo (~RRT 0.7) (Initial): 0.98%
Assay (Potency) (Initial): 99.8%
PT-112 Dimer (~RRT 4.0) (Initial): 0.19%
RRT 0.56 (Initial): 0.13%
RRT 0.68 (Initial): 0.05%
Total Related Substances (Initial): 2%
pH (Initial): 7.2
Particulate Matter (Light Obscuration) (Initial, first value): 219 particles per container
Particulate Matter (Light Obscuration) (Initial, second value): 11 particles per container
